Test results as given in ChEMBL document CHEMBL1201862, “PubChem BioAssay data set” (2004).
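In this assay, cells in 96-well plates receive the compound at five concentrations for 48 hours. Endpoints are linearly interpolated between the surrounding concentrations. Abbreviation: GI50, concentration required for 50% inhibition of growth.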 Activity calls are given as the source filed them. Cut-off read from the data, not from the text of the source: active = GI50 up to about 1.1 µM and inactive = higher.

Legend:
Test in all cases: DTP human tumour cell line panel, 48 h
COLO 205 = tested on: COLO 205
UACC-62 = tested on: UACC-62
HT-29 = tested on: HT-29
A549 = tested on: A549
HOP-62 = tested on: HOP-62
HOP-92 = tested on: HOP-92
DLD-1 = tested on: DLD-1
HCT-15 = tested on: HCT-15
SK-MEL-5 = tested on: SK-MEL-5
U-251 = tested on: U-251
EKVX = tested on: EKVX
SW-620 = tested on: SW-620
K562 = tested on: K562
SF-295 = tested on: SF-295
KM12 = tested on: KM12
Malme-3M = tested on: Malme-3M

| Structure (SMILES) | GI50 (COLO 205) | GI50 (UACC-62) | GI50 (HT-29) | GI50 (A549) | GI50 (HOP-62) | GI50 (HOP-92) | GI50 (DLD-1) | GI50 (HCT-15) | GI50 (SK-MEL-5) | GI50 (U-251) | GI50 (EKVX) | GI50 (SW-620) | GI50 (K562) | GI50 (SF-295) | GI50 (KM12) | GI50 (Malme-3M) |
| --- | --- | --- | --- | --- | --- | --- | --- | --- | --- | --- | --- | --- | --- | --- | --- | --- |
| Cn1c2c(c3ccccc31)CCN(CCCN1CCN(c3cccc(Cl)c3)CC1)C2=O | 15.1 µM (inactive) | 17.4 µM (inactive) | 12.5 µM (inactive) | 49.3 µM (inactive) | 18.7 µM (inactive) | 3.91 µM (inactive) | 23 µM (inactive) | 25.1 µM | 15.1 µM (inactive) | 3.27 µM (inactive) | 41.7 µM (inactive) | 28 µM (inactive) | 14.8 µM (inactive) |  |  |  |
| COC(=O)c1cc(OC(C)=O)c2c(OC)ccc(OC)c2c1 | > 100 µM (inactive) | > 100 µM (inactive) | 47.9 µM (inactive) | > 100 µM (inactive) |  | > 100 µM (inactive) | > 100 µM (inactive) | 64.6 µM | > 100 µM (inactive) | > 100 µM (inactive) | > 100 µM (inactive) | > 100 µM (inactive) | > 100 µM (inactive) | > 100 µM (inactive) | > 100 µM (inactive) | > 100 µM (inactive) |
| CCOC(=O)NC(=O)c1cn(CCN2CCN(C(=O)CCCCCCCCCCNc3ncnc4c3ncn4C3OC(CO)C(O)C3O)CC2)c(=O)[nH]c1=O (stereo unspecified) | > 100 µM (inactive) | > 100 µM (inactive) | > 100 µM (inactive) | > 100 µM (inactive) | > 100 µM (inactive) | 70.3 µM (inactive) | > 100 µM (inactive) | > 100 µM | > 100 µM (inactive) | > 100 µM (inactive) |  | > 100 µM (inactive) | > 100 µM (inactive) | > 100 µM (inactive) | > 100 µM (inactive) | > 100 µM (inactive) |
| CCOC(=O)Cn1c(=O)n(C)c(=O)c2c1ncn2Cc1ccccc1 | > 100 µM (inactive) | > 100 µM (inactive) | > 100 µM (inactive) | > 100 µM (inactive) | > 100 µM (inactive) | > 100 µM (inactive) | > 100 µM (inactive) | > 100 µM | > 100 µM (inactive) | > 100 µM (inactive) | > 100 µM (inactive) | > 100 µM (inactive) | > 100 µM (inactive) |  | > 100 µM (inactive) | > 100 µM (inactive) |
| O=C(CCc1n[nH]c(=S)o1)Nc1ccccc1C(F)(F)F | 57.4 µM (inactive) | > 100 µM (inactive) | > 100 µM (inactive) |  | > 100 µM (inactive) | > 100 µM (inactive) | > 100 µM (inactive) | 20.2 µM | > 100 µM (inactive) | > 100 µM (inactive) | > 100 µM (inactive) | 18.2 µM (inactive) | 66.7 µM (inactive) | > 100 µM (inactive) | > 100 µM (inactive) | > 100 µM (inactive) |
| COc1ccc([C@@H]2CC(=O)N2)cc1 | > 100 µM (inactive) | > 100 µM (inactive) | > 100 µM (inactive) | > 100 µM (inactive) | > 100 µM (inactive) | > 100 µM (inactive) | > 100 µM (inactive) | > 100 µM | > 100 µM (inactive) | > 100 µM (inactive) | > 100 µM (inactive) |  | > 100 µM (inactive) | > 100 µM (inactive) | > 100 µM (inactive) | > 100 µM (inactive) |
| CC(C)C(Sc1nc(-c2ccccc2)c(-c2ccccc2)[nH]1)C(=O)NN (stereo unspecified) | > 100 µM (inactive) |  | > 100 µM (inactive) | > 100 µM (inactive) | > 100 µM (inactive) | 73.1 µM (inactive) | > 100 µM (inactive) | > 100 µM | > 100 µM (inactive) | > 100 µM (inactive) |  | > 100 µM (inactive) |  | 74.3 µM (inactive) | > 100 µM (inactive) | > 100 µM (inactive) |
